Assays:
Human COX I = molecular target: T1, Human COX I (Homo sapiens, UniProt P23219); experiment: COX I activity in vitro (PGE2 ELISA, recombinant enzyme); format: biochemical; settings: arachidonic acid 10 μM, pre-incubation 10-20 minutes; read-out: Human COX I ID50
T1 construct: A 2.0 kb fragment containing the coding region of either human or murine COX-I or human or murine COX-II; made in house; host or cells: SF9 insect cells (recombinant baculovirus, transfer vector pVL1393)
Procedure: (§1) A 2.0 kb fragment containing the coding region of either human or murine COX-I or human or murine COX-II was cloned into a BamH1 site of the baculovirus transfer vector pVL1393 (Invitrogen) to generate the baculovirus transfer vectors for COX-I and COX-II in a manner similar to the method of D. R. O'Reilly et al (Baculovirus Expression Vectors: A Laboratory Manual (1992)). Recombinant baculoviruses were isolated by transfecting 4 μg of baculovirus transfer vector DNA into SF9 insect cells ([…]) along with 200 ng of linearized baculovirus plasmid DNA by the calcium phosphate method. See M. D. Summers and G. E. Smith, A Manual of Methods for Baculovirus Vectors and Insect Cell Culture Procedures, Texas Agric. Exp. Station Bull. 1555 (1987). Recombinant viruses were purified by three rounds of plaque purification and high titer (10E7-10E8 pfu/ml), stocks of virus were prepared. For large scale production, SF9 insect cells were infected in 10 liter fermentors (0.5×10^6/ml) with the recombinant baculovirus stock such that the multiplicity of infection was 0.1. After 72 hours the cells were centrifuged and the cell pellet homogenized in Tris/Sucrose (50 mM: 25%, pH 8.0) containing 1% 3-[(3-cholamidopropyl)dimethylammonio]-1-propanesulfonate (CHAPS). The homogenate was centrifuged at 10,000×G for 30 minutes, and the resultant supernatant was stored at −80° C. before being assayed for COX activity.
(§2) COX activity was assayed as PGE2 formed/μg protein/time using an ELISA to detect the prostaglandin released. CHAPS-solubilized insect cell membranes containing the appropriate COX enzyme were incubated in a potassium phosphate buffer (50 mM, pH 8.0) containing epinephrine, phenol, and heme with the addition of arachidonic acid (10 μM). Compounds were pre-incubated with the enzyme for 10-20 minutes prior to the addition of arachidonic acid. Any reaction between the arachidonic acid and the enzyme was stopped after ten minutes at 37° C./room temperature by transferring 40 μl of reaction mix into 160 μl ELISA buffer and 25 μM indomethacin. The PGE2 formed was measured by standard ELISA technology (Cayman Chemical).

Human COX II = molecular target: T2, Human COX II (Homo sapiens, UniProt P35354); experiment: COX II activity in vitro (PGE2 ELISA, recombinant enzyme); format: biochemical; settings: arachidonic acid 10 μM, pre-incubation 10-20 minutes; read-out: Human COX II ID50
T2 construct: A 2.0 kb fragment containing the coding region of either human or murine COX-I or human or murine COX-II; made in house; host or cells: SF9 insect cells (recombinant baculovirus, transfer vector pVL1393)
T2 sequence (P35354 18-604): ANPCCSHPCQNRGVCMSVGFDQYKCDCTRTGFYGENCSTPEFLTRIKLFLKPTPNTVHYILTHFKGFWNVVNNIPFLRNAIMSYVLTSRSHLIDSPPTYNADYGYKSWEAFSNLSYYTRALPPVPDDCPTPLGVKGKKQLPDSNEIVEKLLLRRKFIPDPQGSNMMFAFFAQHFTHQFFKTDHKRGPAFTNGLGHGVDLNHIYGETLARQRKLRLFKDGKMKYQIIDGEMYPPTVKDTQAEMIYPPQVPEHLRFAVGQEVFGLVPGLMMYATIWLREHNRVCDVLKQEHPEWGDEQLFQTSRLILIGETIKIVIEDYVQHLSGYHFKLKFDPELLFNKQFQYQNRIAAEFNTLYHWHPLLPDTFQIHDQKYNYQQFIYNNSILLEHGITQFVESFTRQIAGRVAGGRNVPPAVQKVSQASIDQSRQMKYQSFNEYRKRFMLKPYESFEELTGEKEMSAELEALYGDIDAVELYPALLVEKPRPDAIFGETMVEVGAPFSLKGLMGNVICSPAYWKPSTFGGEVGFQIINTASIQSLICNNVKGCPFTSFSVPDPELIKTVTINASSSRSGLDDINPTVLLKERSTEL
Procedure: The COX II inhibition activity of the compounds of this invention illustrated in the Examples was determined by the following methods.
as §1, §2

T1 sequence (P23219 24-599): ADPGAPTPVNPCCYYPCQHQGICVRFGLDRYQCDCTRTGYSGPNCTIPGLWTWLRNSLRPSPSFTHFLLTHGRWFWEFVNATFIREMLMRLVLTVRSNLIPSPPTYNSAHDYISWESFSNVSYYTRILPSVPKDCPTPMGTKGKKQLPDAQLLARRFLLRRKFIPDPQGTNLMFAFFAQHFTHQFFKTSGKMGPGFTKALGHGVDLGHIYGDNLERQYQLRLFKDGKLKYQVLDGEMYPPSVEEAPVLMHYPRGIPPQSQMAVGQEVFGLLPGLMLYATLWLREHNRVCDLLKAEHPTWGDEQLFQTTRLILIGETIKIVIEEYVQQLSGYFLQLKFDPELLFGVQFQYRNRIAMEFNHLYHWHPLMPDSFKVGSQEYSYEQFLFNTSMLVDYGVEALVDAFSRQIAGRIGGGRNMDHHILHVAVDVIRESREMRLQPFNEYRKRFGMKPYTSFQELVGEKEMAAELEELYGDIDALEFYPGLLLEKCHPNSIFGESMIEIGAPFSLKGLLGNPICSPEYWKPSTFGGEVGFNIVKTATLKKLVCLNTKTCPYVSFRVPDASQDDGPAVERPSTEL

| SMILES | IC50 (Human COX I) | IC50 (Human COX II) | melting point |
| --- | --- | --- | --- |
| Cc1nc(-c2ccc(S(C)(=O)=O)cc2)c(-c2ccc(F)cc2)[nH]1 [Example 6, 5-(4-Fluorophenyl)-2-methyl-4-(4-methylsulfonylphenyl)-1H-imidazole] | > 100 µM | 4.6 µM | – |
| CS(=O)(=O)c1ccc(-c2nc(SCc3ccccc3)[nH]c2-c2ccc(F)cc2)cc1 [Example 8, 2-Benzylthio-5-(4-fluorophenyl)-4-[4-(methylsulfonyl)phenyl]-1H-imidazole] | 2.1 µM | – | 155 to 156 °C |
| COc1ccc(-c2[nH]c(C(F)(F)F)nc2-c2ccc(S(C)(=O)=O)cc2)cc1 [Example 15, 5-(4-Methoxyphenyl)-4-[4-(methylsulfonyl)phenyl]-2-(trifluoromethyl)-1H-imidazole] | 5.6 µM | 2.9 µM | – |
| NS(=O)(=O)c1ccc(-c2nc(C(F)(F)F)[nH]c2-c2ccc(F)cc2)cc1 [Example 21, 4-[5-(4-Fluorophenyl)-2-(trifluoromethyl)-1H-imidazol-4-yl]benzenesulfonamide] | 10.8 µM | – | 259 to 260 °C |
| COc1ccc(-c2nc(C(F)(F)F)[nH]c2-c2ccc(S(C)(=O)=O)cc2)cc1OC [Example 41, 4-(3,4-Dimethoxyphenyl)-5-[4-(methylsulfonyl)phenyl]-2-(trifluoromethyl)-1H-imidazole] | – | – | 221 to 224 °C |
| COc1ccc(-c2nc(C(F)(F)F)[nH]c2-c2ccc(S(C)(=O)=O)cc2)cc1C [Example 42, 4-(4-Methoxy-3-methylphenyl)-5-[4-(methylsulfonyl)phenyl]-2-(trifluoromethyl)-1H-imidazole] | – | – | 265 to 267 °C |
| Cn1c(C(F)(F)F)nc(-c2ccc(F)cc2)c1-c1ccc(S(C)(=O)=O)cc1 [Example 45, 4-(4-Fluorophenyl)-1-methyl-5-[4-(methylsulfonyl)phenyl]-2-(trifluoromethyl)-1H-imidazole] | – | – | 193 to 195 °C |
| Cc1cc(C)cc(-c2[nH]c(C(F)(F)F)nc2-c2ccc(S(C)(=O)=O)cc2)c1 [Example 46, 5-(3,5-Dimethylphenyl)-4-[4-(methylsulfonyl)phenyl]-2-(trifluoromethyl)-1H-imidazole] | – | – | 255 to 257 °C |
| COc1c(C)cc(-c2[nH]c(C(F)(F)F)nc2-c2ccc(S(C)(=O)=O)cc2)cc1C [Example 52, 5-(3,5-Dimethyl-4-methoxyphenyl)-4-[4-(methylsulfonyl)phenyl]-2-(trifluoromethyl)-1H-imidazole] | – | – | 265 to 267 °C |
| Cc1cc(Cl)cc(-c2[nH]c(C(F)(F)F)nc2-c2ccc(S(C)(=O)=O)cc2)c1 [Example 54, 5-(3-Chloro-5-methylphenyl)-4-[-(methylsulfonyl)phenyl]-2-(trifluoromethyl)-1H-imidazole] | – | – | 260 to 262 °C |
| COc1ccc(-c2[nH]c(C(F)(F)F)nc2-c2ccc(S(C)(=O)=O)cc2)cc1Cl [Example 57, 5-(3-Chloro-4-methoxyphenyl)-4-[4-(methylsulfonyl)phenyl]-2-(trifluoromethyl)-1H-imidazole] | – | – | 288 to 291 °C |
| CS(=O)(=O)c1ccc(-c2nc(C(F)(F)F)[nH]c2C2CCCCC2)cc1 [Example 69, 5-(Cyclohexyl)-4-[4-(methylsulfonyl)phenyl]-2-(trifluoromethyl)-1H-imidazole] | – | – | 250 to 253 °C |
| CS(=O)(=O)c1ccc(-c2nc(C(F)(F)F)[nH]c2C2CCCC2)cc1 [Example 75, 5-(Cyclopentyl)-4-[4-(methylsulfonyl)phenyl]-2-(trifluoromethyl)-1H-imidazole] | – | – | 210 to 212 °C |
| COc1cc(-c2[nH]c(C(F)(F)F)nc2-c2ccc(S(C)(=O)=O)cc2)ccc1Cl [Example 78, 5-(4-Chloro-3-methoxyphenyl)-4-[4-(methylsulfonyl)phenyl]-2-(trifluoromethyl)-1H-imidazole] | – | – | 233 to 234 °C |
| CS(=O)(=O)c1ccc(-c2nc(C(=O)Cc3ccccc3)[nH]c2-c2ccc(F)cc2)cc1 [Example 86, 1-[5-(4-Fluorophenyl)-4-[4-(methylsulfonyl)phenyl]-1H-imidazol-2-yl]-2-phenylethanone] | – | – | 263.2 °C |

More lines, now with the values ahead:

| IC50 (Human COX I) | IC50 (Human COX II) | melting point | SMILES |
| --- | --- | --- | --- |
| 10.4 µM | 0.4 µM | – | CS(=O)(=O)c1ccc(-c2nc(C(F)(F)F)[nH]c2-c2ccc(Cl)cc2)cc1 [Example 11, 5-(4-Chlorophenyl)-4-[4-(methylsulfonyl)phenyl]-2-(trifluoromethyl)-1H-imidazole] |
| > 100 µM | 1.3 µM | – | CS(=O)(=O)c1ccc(-c2nc(C(F)(F)F)[nH]c2-c2ccccc2Cl)cc1 [Example 12, 5-(2-Chlorophenyl)-4-[4-(methylsulfonyl)phenyl]-2-(trifluoromethyl)-1H-imidazole] |
| 9.6 µM | – | – | CS(=O)(=O)c1ccc(-c2nc(C(F)(F)F)[nH]c2-c2ccc(Cl)c(Cl)c2)cc1 [Example 13, 5-(3,4-Dichlorophenyl)-4-[4-(methylsulfonyl)phenyl]-2-(trifluoromethyl)-1H-imidazole] |
| – | – | 251 to 252 °C | Cc1ccc(-c2[nH]c(C(F)(F)F)nc2-c2ccc(S(C)(=O)=O)cc2)cc1F [Example 56, 5-(3-Fluoro-4-methylphenyl)-4-[4-(methylsulfonyl)phenyl]-2-(trifluoromethyl)-1H-imidazole] |
| – | – | 279 to 284 °C | Cc1ccc(-c2[nH]c(C(F)(F)F)nc2-c2ccc(S(C)(=O)=O)cc2)cc1C [Example 61] |
| – | – | 202 to 208 °C | COc1cccc(-c2[nH]c(C(F)(F)F)nc2-c2ccc(S(C)(=O)=O)cc2)c1 [Example 65, 5-(3-Methoxyphenyl)-4-[4-(methylsulfonyl)phenyl]-2-(trifluoromethyl)-1H-imidazole] |
| – | – | 225 to 229 °C | CS(=O)(=O)c1ccc(-c2nc(C(F)(F)F)[nH]c2-c2cccc(F)c2)cc1 [Example 66, 5-(3-Fluorophenyl)-4-[4-(methylsulfonyl)phenyl]-2-(trifluoromethyl)-1H-imidazole] |
| – | – | 180 to 190 °C | Cc1ccccc1-c1[nH]c(C(F)(F)F)nc1-c1ccc(S(C)(=O)=O)cc1 [Example 67, 5-(2-Methylphenyl)-4-[4-(methylsulfonyl)phenyl]-2-(trifluoromethyl)-1H-imidazole] |
| – | – | 224 to 226 °C | CS(=O)(=O)c1ccc(-c2nc(C(F)(F)F)[nH]c2-c2cccc(Cl)c2)cc1 [Example 68, 5-(3-Chlorophenyl)-4-[4-(methylsulfonyl)phenyl]-2-(trifluoromethyl)-1H-imidazole] |
| – | – | 261 to 264 °C | Cc1cc(-c2[nH]c(C(F)(F)F)nc2-c2ccc(S(C)(=O)=O)cc2)ccc1Cl [Example 71, 5-(4-Chloro-3-methylphenyl)-4-[4-(methylsulfonyl)phenyl]-2-(trifluoromethyl)-1H-imidazole] |
| – | – | 273 to 275 °C | Cc1ccc(-c2[nH]c(C(F)(F)F)nc2-c2ccc(S(C)(=O)=O)cc2)cc1Cl [Example 73, 5-(3-Chloro-4-methylphenyl)-4-[4-(methylsulfonyl)phenyl]-2-(trifluoromethyl)-1H-imidazole] |
| – | – | 230 to 232 °C | CS(=O)(=O)c1ccc(-c2nc(C(F)(F)F)[nH]c2-c2ccsc2)cc1 [Example 76, 4-[4-(Methylsulfonyl)phenyl]-5-(3-thiophenyl)-2-(trifluoromethyl)-1H-imidazole] |
| – | – | 192 to 196 °C | Cc1c(F)cccc1-c1[nH]c(C(F)(F)F)nc1-c1ccc(S(C)(=O)=O)cc1 [Example 77, 5-(3-Fluoro-2-methylphenyl)-4-[4-(methylsulfonyl)phenyl]-2-(trifluoromethyl)-1H-imidazole] |

— patent US6426360B1, “4,5-substituted imidazolyl compounds for the treatment of inflammation” (G D Searle & Co., priority 1994, dated 2002)
